Results: US20160250285A1, “NEUROPROTECTIVE PEPTIDES” (priority 2013, published 2016)
Like-named read-outs stand apart in the source and are kept apart here. Square brackets hold non-standard residues; d marks the D form.

How the values were obtained:
[1] = test system: primary cortical neuronal cultures; conditions: values from Meade et al. (2010a,b); read-out: IC50: Glutamic acid model; cited from earlier work
[2] = test system: primary cortical neuronal cultures; test: In vitro ischemia / oxygen-glucose deprivation (OGD) model, neurons; assay type: cell-based, rat; conditions: peptide present during in vitro ischemia and at 50% dose after (FIG. 3a)
[3] = test system: primary cortical neuronal cultures; conditions: for neuroprotection (neuronal viability): peptide 15 min prior to and during glutamic acid exposure, viability 24 h, MTS; for neuroprotection when added immediately after glutamic acid exposure: 0 min post-insult (FIG. 1d); for neuroprotection when added 15 minutes post-insult: 15 min post-glutamic acid (FIG. 1d)
Description: Briefly, cortical tissue from E18-E19 Sprague-Dawley rats was dissociated in Dulbecco's modified Eagle medium (DMEM; Invitrogen, Australia) supplemented with 1.3 mM L-cysteine, 0.9 mM NaHCOa, 10 units/ml papain (Sigma, USA) and 50 units/ml DNase (Sigma) and washed in cold DMEM/10% horse serum. Neurons were resuspended in Neurobasal (Invitrogen) containing 2% B27 supplement (B27; Invitrogen). Before seeding, 96-well sized glass wells (6 mm diameter, ProTech, Australia) or 96-well plastic plates (ProSciTech, Australia) were coated with poly-D-lysine overnight ([…]: 50 mg/mL; 70-150 K, Sigma). […] Neurons were plated to obtain ≈10,000 viable neurons for each well on day in vitro 11-12. […] On day in vitro 4 one third of the culture medium was removed and replaced with fresh Neurobasal/2% B27 containing the mitotic inhibitor, cytosine arabinofuraNOside (1 mM final concentration; Sigma). On day in vitro 8 one half of the culture medium was replaced with Neurobasal/2% B27.
(§1) To induce excitotoxicity, 50 μl of Neurobasal/2% B27 containing glutamic acid (200 μM) or kainic acid (400 μM) or NMDA (200 μM) was added to the culture wells (100 μM glutamic acid, 200 μM kainic acid and NMDA 100 μM final concentration). Cultures were incubated at 37° C. in the CO2 incubator for 5 minutes for glutamic acid, 45 minutes for kainic acid and 10 minutes for NMDA exposure, after which time the media was replaced with 100 μl of 50% Neurobasal/2% N2 supplement (Invitrogen) and 50% balanced salt solution (BSS; see below). Cultures were incubated for a further 24 hours at 37° C. in the CO2 incubator. The untreated controls with or without glutamic acid or kainic acid treatment received the same wash steps and media additions.
Following this step, cultures were treated as described above. Untreated controls with or without glutamic acid exposure received the same wash steps and media additions. In addition, a post-glutamic acid exposure CPP treatment (5 μM) experiment was performed for the R9 peptide and the JNKI-1D-TAT control peptide.
For pre-glutamic acid exposure experiments, neurons were exposed to peptide(s) for a 10 minute period, immediately before or 1, 2, 3, 4 or 5 hours prior to glutamic acid exposure. […] At the relevant peptide pre-treatment time, media was removed and replaced with 100 μl of Neurobasal/2%. […] Following 5-minute glutamic acid exposure, neuronal culture wells were treated as described above. For all experiments untreated controls with or without glutamic acid treatment underwent the same incubation steps and media additions.
Heparin (for injection) was obtained from Pfizer (1000 IU/ml). Two different heparin experiments were performed: 1. Peptides were incubated with heparin (20 IU/ml) in Neurobasal/B27 for 5 minutes at room temperature, before addition to culture wells (50 μl) for 15 minutes at 37° C. in the CO2 incubator. Following the incubation period, media in wells was removed and replaced with 100 μl of Neurobasal/2% B27 containing glutamic acid (100 μM), and subsequently treated as described above; 2. Media in wells was replaced with Neurobasal/2% B27 containing heparin (50 μl; 40 IU/ml) and incubated for 5 minutes at 37° C. in the CO2 incubator. After the incubation period, peptides or glutamate receptor blockers (MK801/CNQX) in Neurobasal/2% B27 (50 μl) were added to the culture wells and cultures incubated for a further 10 minutes at 37° C. in the CO2 incubator. Following the incubation period, media in wells was removed and replaced with 100 μl of Neurobasal/2% B27 containing glutamic acid (100 μM), and subsequently treated as described above. For all experiments, non-heparin treated peptide controls with glutamic acid treatment underwent the same incubation steps and media additions.
Twenty-four hours after insult, neuronal cultures were examined by light microscopy for qualitative assessment of neuronal cell viability.

[4] = test system: primary cortical neuronal cultures; conditions: FIG. 2
Description: Establishment of cortical cultures was as previously described (Meloni et al. 2001). Briefly, cortical tissue from E18-E19 Sprague-Dawley rats was dissociated in Dulbecco's modified Eagle medium (DMEM; Invitrogen, Australia) supplemented with 1.3 mM L-cysteine, 0.9 mM NaHCOa, 10 units/ml papain (Sigma, USA) and 50 units/ml DNase (Sigma) and washed in cold DMEM/10% horse serum. Neurons were resuspended in Neurobasal (Invitrogen) containing 2% B27 supplement (B27; Invitrogen). Before seeding, 96-well sized glass wells (6 mm diameter, ProTech, Australia) or 96-well plastic plates (ProSciTech, Australia) were coated with poly-D-lysine overnight ([…]: 50 mg/mL; 70-150 K, Sigma). Excess poly-D-lysine solution was then removed and replaced with Neurobasal (containing 2% B27; 4% fetal bovine serum; 1% horse serum; […] glutamate; […] 2-mercaptoethanol; and […]). Neurons were plated to obtain ≈10,000 viable neurons for each well on day in vitro 11-12. Neuronal cultures were maintained in a CO2 incubator (5% CO2, 95% air balance, 98% humidity) at 37° C. On day in vitro 4 one third of the culture medium was removed and replaced with fresh Neurobasal/2% B27 containing the mitotic inhibitor, cytosine arabinofuraNOside (1 mM final concentration; Sigma). On day in vitro 8 one half of the culture medium was replaced with Neurobasal/2% B27. Cultures were used on day in vitro 11 or 12 after which time they routinely consist of >97% neurons and 1-3% astrocytes (Meloni et al. 2001).
as §1, with “Peptides were added to culture wells (96-well plate format) 15 minutes prior to glutamic acid or kainic acid exposure by removing media and adding 50 μl of Neurobasal/2% 327 containing CPPs, control peptides or MK801/CNQX. To” for “To”
(§2) Twenty-four hours after insult, neuronal cultures were examined by light microscopy for qualitative assessment of neuronal cell viability. Neuronal viability was quantitatively measured by 3-(4,5,dimethyliazol-2-yl)-5-(3-carboxymethoxy-phenyl)-2-(4-sulfophenyl)-2H-tetrazolium salt (MTS) assay (Promega, Australia). The MTS assay measures the cellular conversion of the tetrazolium salt to a water-soluble brown formazan salt, which is detected spectrophotometrically at 490 nm. MTS absorbance data were converted to reflect proportional cell viability relative to both the untreated and treated controls, with the untreated control taken as 100% viability, and presented as mean±SEM. For studies using astrocytes, bEND3, and SH-Y5Y cells, raw MTS data was used to generate graphs. Viability data was analysed by ANOVA, followed by post-hoc Fischer's PLSD test, with P<0.05 values considered statistically significant. Four- to six wells were used in all assays.

[5] = test system: intracellular calcium influx in neuronal cultures; test: Intracellular calcium influx (Fura-2 AM) after glutamic acid; assay type: cell-based, rat; conditions: peptide 5 μM for 10 min, removed before 100 μM glutamic acid (FIG. 44)
Description: Fura-2 AM was used for intracellular calcium assessment. Representative fluorescent Fura-2 AM tracers; fluorescence intensity (FI) of neuronal cultures 30 sec before and following addition (arrow) of glutamic acid (100 μM final concentration). Peptides or glutamate receptor blockers were added to neuronal cultures for 10 min and removed (time 0) before glutamic acid. Values are mean±SE; n=3. Peptide concentration was 5 μM.
Briefly, cortical tissue from E18-E19 Sprague-Dawley rats was dissociated in Dulbecco's modified Eagle medium (DMEM; Invitrogen, Australia) supplemented with 1.3 mM L-cysteine, 0.9 mM NaHCOa, 10 units/ml papain (Sigma, USA) and 50 units/ml DNase (Sigma) and washed in cold DMEM/10% horse serum. Neurons were resuspended in Neurobasal (Invitrogen) containing 2% B27 supplement (B27; Invitrogen). Before seeding, 96-well sized glass wells (6 mm diameter, ProTech, Australia) or 96-well plastic plates (ProSciTech, Australia) were coated with poly-D-lysine overnight (50 ml/well: 50 mg/mL; 70-150 K, Sigma). Excess poly-D-lysine solution was then removed and replaced with Neurobasal (containing 2% B27; 4% fetal bovine serum; 1% horse serum; 62.5 mM glutamate; 25 mM 2-mercaptoethanol; and 30 mg/mL streptomycin and 30 mg/mL penicillin). Neurons were plated to obtain ≈10,000 viable neurons for each well on day in vitro 11-12. Neuronal cultures were maintained in a CO2 incubator (5% CO2, 95% air balance, 98% humidity) at 37° C. On day in vitro 4 one third of the culture medium was removed and replaced with fresh Neurobasal/2% B27 containing the mitotic inhibitor, cytosine arabinofuraNOside (1 mM final concentration; Sigma). On day in vitro 8 one half of the culture medium was replaced with Neurobasal/2% B27. Cultures were used on day in vitro 11 or 12 after which time they routinely consist of >97% neurons and 1-3% astrocytes (Meloni et al. 2001).

[6] = test system: primary cortical neuronal cultures; test: NMDA excitotoxicity model; assay type: cell-based, rat; conditions: peptide 15 min before and during NMDA exposure (FIG. 37)
Description: Establishment of cortical cultures was as previously described (Meloni et al. 2001). Briefly, cortical tissue from E18-E19 Sprague-Dawley rats was dissociated in Dulbecco's modified Eagle medium (DMEM; Invitrogen, Australia) supplemented with 1.3 mM L-cysteine, 0.9 mM NaHCOa, 10 units/ml papain (Sigma, USA) and 50 units/ml DNase (Sigma) and washed in cold DMEM/10% horse serum. Neurons were resuspended in Neurobasal (Invitrogen) containing 2% B27 supplement (B27; Invitrogen). Before seeding, 96-well sized glass wells (6 mm diameter, ProTech, Australia) or 96-well plastic plates (ProSciTech, Australia) were coated with poly-D-lysine overnight ([…]: 50 mg/mL; 70-150 K, Sigma). […]
as §2, with “For studies using astrocytes, bEND3, and SH-Y5Y cells, raw MTS data was used to generate graphs. Viability data was analysed by ANOVA, followed by post-hoc Fischer's PLSD test, with P<0.05 values considered statistically significant. Four- to six wells were used in all assays.” left out

[7] = test system: primary cortical neuronal cultures; conditions: values from Meade et al. (2010a,b); read-out: IC50: Kainic acid model; cited from earlier work

GRKKRRQRRRGGLQGRRRQGYQSIKP [PYC36L-TAT, reference compound]
IC50 [1]: 1500 nM | neuroprotection [2]: effective | effect of heparin on neuroprotective action ([3]; heparin 20 IU/ml with peptide or 40 IU/ml on cultures (FIGS. 39, 40)): blocks neuroprotective actions | neuroprotection (neuronal viability) [3]: highly effective | neuroprotection [4]: effective | calcium influx after glutamic acid [5]: to varying degrees reduced calcium influx

H-GRKKRRQRRR-KLSSIESDV-NH2 (H-GRKKRRQRRRKLSSIESDV-NH2) [NR2B9c-TAT, reference compound]
neuroprotection [6]: low level neuroprotection | neuroprotection when added immediately after glutamic acid exposure [3]: did not significantly increase neuronal survival | neuroprotection when added 15 minutes post-insult [3]: did not significantly increase neuronal survival | neuroprotection, milder insult ([3]; FIG. 1i, comparison at 0.5 μM and 1 μM): ineffective | neuroprotection (neuronal viability) ([3]; listed as TAT-NR29C): ineffective | calcium influx after glutamic acid [5]: to varying degrees reduced calcium influx

H-tdqsrpvqpflnlttprkprpp-rrrqrrkkrG-NH2 (H-[dT][dD][dQ][dS][dR][dP][dV][dQ][dP][dF][dL][dN][dL][dT][dT][dP][dR][dK][dP][dR][dP][dP][dR][dR][dR][dQ][dR][dR][dK][dK][dR]G-NH2; SMILES CC(C)C[C@@H](NC(=O)[C@@H](Cc1ccccc1)NC(=O)[C@H]1CCCN1C(=O)[C@@H](CCC(N)=O)NC(=O)[C@H](NC(=O)[C@H]1CCCN1C(=O)[C@@H](CCCNC(=N)N)NC(=O)[C@@H](CO)NC(=O)[C@@H](CCC(N)=O)NC(=O)[C@@H](CC(=O)O)NC(=O)[C@H](N)[C@H](C)O)C(C)C)C(=O)N[C@H](CC(N)=O)C(=O)N[C@H](CC(C)C)C(=O)N[C@@H](C(=O)N[C@@H](C(=O)N1CCC[C@@H]1C(=O)N[C@H](CCCNC(=N)N)C(=O)N[C@H](CCCCN)C(=O)N1CCC[C@@H]1C(=O)N[C@H](CCCNC(=N)N)C(=O)N1CCC[C@@H]1C(=O)N1CCC[C@@H]1C(=O)N[C@H](CCCNC(=N)N)C(=O)N[C@H](CCCNC(=N)N)C(=O)N[C@H](CCCNC(=N)N)C(=O)N[C@H](CCC(N)=O)C(=O)N[C@H](CCCNC(=N)N)C(=O)N[C@H](CCCNC(=N)N)C(=O)N[C@H](CCCCN)C(=O)N[C@H](CCCCN)C(=O)N[C@H](CCCNC(=N)N)C(=O)NCC(N)=O)[C@H](C)O)[C@H](C)O) [JNKI-1D-TAT, reference compound]
IC50 [1]: 2100 nM | neuroprotection when added immediately after glutamic acid exposure [3]: ineffective | neuroprotection when added immediately after glutamic acid exposure ([3]; listed as JNKI-1 D-TAT): did not significantly increase neuronal survival | neuroprotection when added 15 minutes post-insult [3]: ineffective | neuroprotection when added 15 minutes post-insult ([3]; listed as JNKI-1 D-TAT): did not significantly increase neuronal survival | neuroprotection (neuronal viability) [3]: highly effective | neuroprotection (neuronal viability) ([3]; listed as JNKI-1-TATD): neuroprotective | neuroprotection [4]: effective | IC50 [7]: 6500 nM | calcium influx after glutamic acid [5]: to varying degrees reduced calcium influx
